Results as given in US20220142991A1, “METHODS AND COMPOSITIONS FOR TREATMENT OF L YSOSOMAL STORAGE DISORDER” (CHILDREN'S HOSPITAL MEDICAL CENTER, priority 2019, published 2022).

What was measured:
4L;C* mice [1] = experiment: Lifespan (Kaplan-Meier survival) in 4L;C* nGD mouse model; format: in vivo; conditions: rapamycin 6 mg/kg i.p. every 2 days from 2 weeks of age, untreated 59 days, buffer 60 days
Source text: The 4L;C* mouse is a transgenic animal model that is viable and mimics neurological deficits analogous to subacute neuronopathic Gaucher disease (nGD). The 4L;C* mice used in this and other examples disclosed herein were generated as described in Sun et al., Hum Mol Genet. 2010 Mar. 15; 19(6): 1088-1097, the disclosure of which is incorporated herein in its entirety. In brief, saposin C deficient (C^−/−) mice were generated by introducing a Cys→Pro substitution in the saposin C region of prosaposin. […] Saposin C is an essential activator for GCase. GCase V394L (4L/4L) mice were generated by germ-line transmission of a missense point mutation in the GCase (GBA) locus encoding for V394L. Next, saposin C^−/− mice were cross-bred with point mutated GCase V394L homozygotes (4L/4L) to generate 4L/wt;C^−/+ mice. 4L;C* mice (4L/4L;C^−/−) were produced by intercrossing 4L/4L;C^+/− with 4L/4L;C^+/−. The strain background of 4L;C* was originally C57BL/6J/129SvEV and backcrossed into pure C57BL/6J strain for more than 12 generations.

4L;C* mice [2] = experiment: CD68 immunohistochemistry for activated microglia/macrophage in brain and spinal cord; format: in vivo, mouse
Source text: CD68, a classic marker of activated microglia/macrophage (Korzhevskii et al., (2016) Neurosci Behav Physi 46, 284-290), was used to determine CNS inflammation by immunohistochemistry staining. […] FIG. 6A.

inflammatory mediators = experiment: RT-qPCR of inflammatory mediator mRNA in midbrain tissue; format: in vivo, mouse
Experimental: Vitner et al., (2012) Brain. 135 (Pt 6):1724-35; Dasgupta et al., (2015) Hum Mol Genet. 15; 24(24):7031-48. The highly activated microglia/and astrocyte are the main source of multiple inflammatory mediators in brain. […] The isolated mRNA was subjected to quantitative reverse transcription PCR (RT-qPCR) analysis using oligos directed toward inflammatory mediator genes of interest, including cytokine, chemokine, and inflammation-related receptors. Specifically, RT-qPCR analysis was performed to detect mRNA expression levels of the following genes: tumor necrosis factor (TNF)-alpha, interleukin (IL)-1-beta (IL-1β), IL-6, IL-17A, transforming growth factor beta (TGF-β), chemokine ligand (CCL) 5 (CCL5), CCL2, CCL22 chemokine (C-X-C motif) ligand 2 (CXCL2), intercellular adhesion molecule 1 (ICAM1), tumor necrosis factor receptor 1 (TNFR1), Cluster of Differentiation 86 (CD86), EGF-like module-containing mucin-like hormone receptor-like 1 (F4/80), component 5 (C5), and complement component 5a receptor 1 (C5AR1).

4L;C* mice [3] = experiment: FACS analysis of microglia and leukocyte populations in brain; format: in vivo, mouse; conditions: brain hemispheres
Source text: Brain inflammation invariably results in a reshaping of the blood-borne leukocyte populations inhabiting the CNS. To elucidate the changes of resident immune cells (i.e., microglial cells) and infiltrated leukocytes in nGD brain and the effect rapamycin has on activation of immune cells and infiltration, flow cytometry was used to analyze different leukocyte populations in brain parenchyma, including CD45^+ cells, microglia, myeloid, lymphoid, macrophage and T cells. […] The hemispheres of the brain were separated, minced, and digested by incubation with […] collagenase IV for 30 min at 37° C. The resulting cell suspensions were then fractionated by density gradient separation using 25% Percoll® gradients at 520×g for 20 minutes. […] After removing myelin and top suspension layer, pelleted cells collected were then subjected to multicolor (5) fluorescence-activated cell sorting analysis (FACS) by co-staining with multiple antibodies that conjugated with various fluorochromes to identify microglia and subpopulations of leukocytes. FIG. 10A. […] FIG. 10B. […] FIG. 10B. […] FIG. 10B.
The frequency of microglia (CD45^intermediateCD11b^high) was increased in buffer-treated 4L;C* mice (1.9 fold) and decreased in rapamycin-treated 4L;C* mice (1.3-fold), which indicates reduced microgliosis in nGD brain. FIG. 10B. […] FIGS. 10C and 10D.

4L;C* nBMT mice = experiment: FACS analysis of donor-derived GFP+ migrated cells in brain after nBMT; format: in vivo, mouse; conditions: 55 days of age
Experimental: Briefly, mice that express enhanced green fluorescent protein (GFP; C57BL/6 GFP/CD45.1) were used as bone marrow donors. Low-density bone marrow (LDBM) cells were harvested by flushing the hind-leg bones with Dulbecco's modified Eagle's medium (DMEM) containing 2% fetal calf serum (FCS) and 50 U penicillin/0.05 mg/mL streptomycin using a 23 G needle. The cells were passed through a 100 μm cell strainer. LDBM cells were isolated after density gradient centrifugation with Histopaque-1083. Viable cells were counted with trypan blue dye and resuspended in PBS containing 30 U/mL heparin. The recipient pups (˜3 days old of 4L;C or 4L;norm) were subjected to myelosuppressive conditioning with the chemotherapeutic agent busulfan by intraperitoneal injection at 20 mg/kg. Twenty-four hours later, the 4L;C and 4L;norm recipient pups then received about 1×10^6 GPF+ donor cells via injection into super-facial temple vein (nBMT). 4L;C nBMT mice were then given an i.p. injection of rapamycin or buffer every other days starting at 21 days of age. […] Multicolor FACS analysis was conducted as described above to analyze contribution of GFP+ migrated cells in microglia and subpopulations of leukocytes. FIG. 11A. The frequency of donor-derived GFP+ cells among different leukocyte populations in brain parenchyma was quantified, including CD45^+ cells, microglia, myeloid, lymphoid, macrophage and T cells. Table 1. In busulfan-conditioned mice, engraftment of GFP+ microglial cells was increased in 4L;C* mice compared to 4L normal mice, regardless of treatment with buffer or rapamycin. Table 1. […] FIG. 11B.

4L;C* mice [4] = experiment: Relative bodyweight in 4L;C* nGD mouse model; conditions: 6 mg/kg i.p. every 2 days, bodyweight normalized to age 30 days, untreated/buffer Day 52
Experimental: To assess the effect of rapamycin on nGD, rapamycin (6 mg/kg) was administered to 4L;C* mice by intraperitoneal (i.p.) injection every 2 days starting from 2-weeks of age (4L;C* rapa). […] The lifespan of the mice was monitored daily from 40 days of age until 90 days of age or until death. The Kaplan-Meier method was used to estimate survival probability and a log-rank test was used to compare the Kaplan-Meier survival curves of the four different experimental groups.
Additionally, the bodyweight the mice was measured daily from 20 days of age until 90 days of age or until death. Relative bodyweight curves were normalized by weight value of each animal at the age of 30 days.

4L;C* mice [5] = experiment: GFAP immunohistochemistry for activated astrocytes in brain; conditions: middle brain, brain stem, Day 55
Experimental: To visualize reactive astrocytes in nGD mice, immunohistochemistry (IHC) was performed. In brief, brains were harvested from well-perfused rapamycin treated 4L;C* mice, buffer-treated 4L;C* mice, and 4L normal mice at age of Day 55. Sagittal brain cryosections (8 um) were mounted on gelatin-coated slides, air-dried, and subjected to IHC staining using the BenchMark XT IHC/ISH staining module. For GFAP staining, the sections were incubated in buffer solution containing 0.1% trypsin for 5 minutes at room temperature. For morphometric analysis, hematoxylin-eosin co-staining was performed according to standard protocols. Endogenous peroxidase activity was quenched by incubation of the sections for 5 minutes with 3% hydrogen peroxide. Sections were incubated overnight at 4° C. in primary antibodies for GFAP rabbit polyclonal antibody. Staining was detected using biotin-labeled anti-rabbit secondary antibodies and streptavidin conjugated to horseradish peroxidase. Sections were examined with microscope using computer-assisted image analysis software.

4L;C* mice [6] = experiment: Fluoro-Jade C (FJC) staining for degenerating neurons in brain cryosections; conditions: most brain regions, Day 55, vs buffer-treated 4L;C*
Experimental: To visualize degenerative neurons in nGD mice, brains were harvested from well-perfused rapamycin treated 4L;C* mice, buffer-treated 4L;C* mice, and 4L normal, untreated mice at age of Day 55. Sagittal brain cryosections (10 μm) were mounted on gelatin-coated slides, air-dried, and subjected to FJC staining. The slides were first immersed in a solution containing 1% NaOH in 80% ethanol for 5 minutes. They were rinsed for 2 minutes in 70% ethanol and for 2 minutes in distilled water, then incubated in 0.06% potassium permanganate solution for 10 minutes. Following a water rinse for 2 minutes, slides were transferred to the FJC staining solution and stained for 10 minutes. The proper dilution was accomplished by first making a 0.01% stock solution of FJC dye (Chemicon, Temecula, Calif., USA) in distilled water and then adding 1 ml of the stock solution to 99 ml of 0.1% acetic acid. Slides were washed three times each for 1 minute and then air-dried on a slide warmer at 50° C. for 30 minutes. After clearing in xylene and coverslipping, sections were examined under an epifluorescence microscope.

With CO[C@H]1C[C@@H]2CC[C@@H](C)[C@@](O)(O2)C(=O)C(=O)N2CCCC[C@H]2C(=O)O[C@H]([C@H](C)C[C@@H]2CC[C@@H](O)[C@H](OC)C2)CC(=O)[C@H](C)/C=C(\C)[C@@H](O)[C@@H](OC)C(=O)[C@H](C)C[C@H](C)/C=C/C=C/C=C/1C [rapamycin] the median survival (4L;C* mice [1]) was 82 days, the “reduction of CD68+ area” value (4L;C* mice [2]; all brain regions except cerebellar DCN, Day 55) was 53-62% and the “reduction of CD68 signals” value (4L;C* mice [2]; spinal cord) was 56%. For the same molecule, the “CCL2 mRNA expression” value (inflammatory mediators; Day 55, buffer-treated 16.6-fold) was 9 fold, the “CCL5 mRNA expression” value (inflammatory mediators; Day 55, compared to normal littermates, buffer-treated 47-fold) was 23 fold and the “frequency of microglia (CD45intermediate CD11bhigh)” value (4L;C* mice [3]; buffer-treated 1.9 fold) was 1.3 fold. The “percentage of total CD45+ cells in brain” value (4L;C* mice [3]; buffer-treated 2.2-) was 1.4 fold, the “Frequency of GFP+ cells among CD45+” value (4L;C* nBMT mice) was 2.87 and the “Frequency of GFP+ cells among Lymphoid” value (4L;C* nBMT mice) was 29.3. The “Frequency of GFP+ cells among Macrophage” value (4L;C* nBMT mice) was 19.5, the “Frequency of GFP+ cells among Microglia” value (4L;C* nBMT mice) was 1.56 and the “Frequency of GFP+ cells among Myeloid” value (4L;C* nBMT mice) was 17.4. For the same molecule, the “Frequency of GFP+ cells among T Cell” value (4L;C* nBMT mice) was 37.6, the “starting age for bodyweight to show significant difference from normal controls (4L;norm)” value (4L;C* mice [4]) was 75 days and the “decrease of GFAP signal” value (4L;C* mice [5]) was 36-74%. For the same molecule, the “reduction of degenerating neuronal signals (FJC)” value (4L;C* mice [6]) was 29-45%.
